Read-outs that look alike come from different tables or passages of the source.
Tests used:
Mut6 cells [1] = assay: Mut6 cell survival / anti-proliferative activity; assay type: cell-based, murine; details: read-out: IC50, viability / anti-proliferative activity in Mut6
Mut6 cells [2] = assay: rescue of toxicity by exogenous lanosterol or cholesterol in Mut6 cells; assay type: cell-based, murine
Text: Taken together, we concluded that the levels of EPC resulting from 1 treatment are sufficient to downregulate SREBP target genes, upregulate LXR target genes, and block cell proliferation. Through its coordinated action on the critical transcriptional regulators of cholesterol homeostasis, LXRs and SREBPs, EPC can cause lethal reductions in cellular cholesterol levels. To test this hypothesis, we evaluated cell proliferation following treatment with increasing doses of either S-EPL or 1 in the presence of exogenous lanosterol or cholesterol conjugated to methyl beta-cyclodextrin (MCD), which aids sterol solubility and delivery. Supplementing cells with either lanosterol or cholesterol rescued Mut6 cells from the toxic effects of either S-EPL or 1. These observations provide evidence that the anti-proliferative activity of 1 is due to the production of EPC and the resulting depletion of cellular cholesterol.
This latter observation raised the hypothesis that Ro 48-8071 inhibited one or more enzymes downstream of LSS thereby blunting EPC synthesis. To evaluate whether Ro 48-8071 inhibits the synthesis of EPC downstream of EPL, we cultured cells with isotopically labeled EPL (d6-EPL) and measured d6-EPC production following compound treatment. Ro 48-8071 inhibited the production of d6-EPC while 1 had no effect on d6-EPC production. […]

EBP = biological target: T1, EBP (Homo sapiens, UniProt Q15125); assay: displacement of EBP-specific photoaffinity probe TASIN-2 in HCT116 cells; assay type: binding; details: 1 μM TASIN-2
T1 construct: endogenous in cells; host or cells: HCT116
T1 sequence (Q15125 whole entry): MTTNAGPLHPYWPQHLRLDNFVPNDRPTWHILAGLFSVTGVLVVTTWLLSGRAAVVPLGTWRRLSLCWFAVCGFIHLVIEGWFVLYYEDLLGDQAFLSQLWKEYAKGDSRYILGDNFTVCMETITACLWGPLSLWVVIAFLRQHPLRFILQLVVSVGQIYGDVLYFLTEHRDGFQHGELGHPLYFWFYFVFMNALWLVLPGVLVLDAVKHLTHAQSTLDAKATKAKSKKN
Text: Inhibition of these sterol biosynthetic enzymes might provide an explanation for our observation that Ro-48-8071 has a blunted increase in EPC following LSS inhibition. […] Consistent with the proteomics data, Ro 48-8071 and TASIN-30, but not 1, displaced TASIN-2 (band migrating at approximately 20 kDa).

recombinant human LSS = biological target: T2, recombinant human LSS (Homo sapiens, UniProt P48449); assay: cell-free in vitro reaction with recombinant LSS; assay type: biochemical
T2 construct: made in house; host or cells: E. coli
T2 sequence (P48449 1-732): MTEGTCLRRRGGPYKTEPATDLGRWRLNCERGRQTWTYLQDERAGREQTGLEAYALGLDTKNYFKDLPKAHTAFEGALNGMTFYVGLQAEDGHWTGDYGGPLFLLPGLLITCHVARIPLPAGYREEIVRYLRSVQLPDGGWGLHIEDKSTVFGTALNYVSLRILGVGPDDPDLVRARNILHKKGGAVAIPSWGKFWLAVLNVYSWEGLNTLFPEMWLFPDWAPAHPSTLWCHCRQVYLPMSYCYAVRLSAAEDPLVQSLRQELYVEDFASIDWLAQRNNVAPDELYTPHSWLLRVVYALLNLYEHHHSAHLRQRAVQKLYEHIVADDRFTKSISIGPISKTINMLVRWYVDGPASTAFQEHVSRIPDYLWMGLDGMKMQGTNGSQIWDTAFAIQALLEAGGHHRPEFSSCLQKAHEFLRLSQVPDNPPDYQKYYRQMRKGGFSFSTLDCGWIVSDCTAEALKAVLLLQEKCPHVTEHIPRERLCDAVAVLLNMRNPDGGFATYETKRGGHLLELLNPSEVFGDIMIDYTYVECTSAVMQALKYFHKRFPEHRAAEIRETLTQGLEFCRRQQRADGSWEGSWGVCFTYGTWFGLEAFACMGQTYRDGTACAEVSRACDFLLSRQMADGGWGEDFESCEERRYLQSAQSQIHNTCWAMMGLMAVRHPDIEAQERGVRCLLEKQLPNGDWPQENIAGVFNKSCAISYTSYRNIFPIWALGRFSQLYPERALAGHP
Experimental: Recombinant LSS purified from E. coli converted OS to lanosterol in a time- and dose-dependent manner. Of note, lanosterol production was saturated over time, which may be the consequence of substrate depletion or product inhibition. Regardless, we evaluated enzymatic activity over 30 minutes with 64 μM of substrate, conditions under which the reaction remained linear. […] Similar experiments with three different analogs (3, 6, 14) support the notion that inhibition of Lss enzyme activity correlates with anti-GBM activity in Mut6 cells. It was notable that the concentration of compound required to inhibit LSS activity in vitro is substantially higher than the concentration required to block cell growth. One possible explanation for this difference is that the conditions of the in vitro reaction, which includes non-ionic detergents in an aqueous buffer, influence substrate or compound solubility or binding.
An outstanding question regarding the shunt pathway is how LSS can still convert DOS into EPL in the presence of high concentrations of an inhibitor. […] To address this question, we assessed the efficacy of in vitro conversion of DOS to EPL by LSS. […] Therefore, the conversion of DOS to EPL by LSS in the presence of MM0299 is not simply explained by an increased affinity LSS for DOS. […]

Row | displacement of TASIN-2 (EBP probe) (EBP) | Compound | IC50 (Mut6 cells [1]) [nM] | increase in the IC50 with exogenous cholesterol (Mut6 cells [2]) [fold] | increase in the IC50 with exogenous lanosterol (Mut6 cells [2]) [fold] | IC50 (recombinant human LSS; 30 minutes, 64 μM substrate, read-out: IC50, LSS in vitro activity (OS to lanosterol)) [nM] | IC50 (recombinant human LSS; in vitro, read-out: IC50, DOS conversion to EPL by LSS) [nM]
1 | displaced | C=CCN(C)CCCCCCOc1ccc(C(=O)c2ccc(Br)cc2)c(F)c1 [Ro 48-8071, reference compound] | 11.2 | 479.4 | 21.7 |  | 
2 |  | COc1ccc(C(=O)COc2ccc(N3C(=O)[C@@H]4[C@@H]5C=C[C@@H]([C@H]6C[C@@H]56)[C@@H]4C3=O)cc2)cc1 [compound 1, (3aR,4R,4aR,5aS,6S,6aS)-2-(4-(2-(4-Methoxyphenyl)-2-oxoethoxy)phenyl)-4,4a,5,5a,6,6a-hexahydro-4,6-ethenocyclopropa[f]isoindole-1,3(2H,3aH)-dione] |  |  |  | 2220 | 1600

Reference: patent publication US20250034091A1, “Small molecule inhibitors of lanosterol synthase” (Board of Regents, The University of Texas System, priority 2022, published 2025)
